Target: T1, BCL6 (Homo sapiens, UniProt P41182)
T1 construct: Endogenous BCL6 was tagged with the 11-amino acid SmBiT through CRISPR/Cas9 gene editing; endogenous in cells; host or cells: Su-DHL-4 (CRISPR/Cas9 knock-in, single cell clone)
Assay: HiBiT cellular degradation assay in Su-DHL-4 cells
Format: cell-based
Conditions: concentration to reach 50% degradation of endogenous SmBiT-tagged BCL6, 24 hours of compound treatment
Method: DC50 (concentration to reach 50% degradation) values were determined from a cellular degradation assay (HiBiT, Promega™) in Su-DHL-4 cells (Table 1). Endogenous BCL6 was tagged with the 11-amino acid SmBiT through CRISPR/Cas9 gene editing and single cell clone selection. After 24 hours of compound treatment, cells were lysed and incubated with LgBiT protein to reconstitute intact nanoluciferase. Substrate was then added and relative luciferase units were measured. Degradation levels for each treatment were taken as a percentage compared to the control, 100% DMSO (Prism).

| DC50 | SMILES |
| --- | --- |
| 3 nM | CNC(=O)COc1cc2cc(Nc3nc(N4C[C@@H](C)[C@@H](F)[C@@H](C)C4)c(C#N)cc3Cl)ccc2n(C)c1=O [Compound 45, 2-((6-((3-Chloro-5-cyano-6-((3R,4S,5S)-4-fluoro-3,5-dimethylpiperidin-1-yl)pyridin-2-yl)amino)-1-methyl-2-oxo-1,2-dihydroquinolin-3-yl)oxy)-N-methylacetamide] |
| 11 nM | CNC(=O)COc1cc2cc(Nc3nc(N4C[C@@H](C)[C@H](O)[C@@H](C)C4)c(C#N)cc3Cl)ccc2n(C)c1=O [Compound 47, 2-((6-((3-Chloro-5-cyano-6-((3R,4r,5S)-4-hydroxy-3,5-dimethylpiperidin-1-yl)pyridin-2-yl)amino)-1-methyl-2-oxo-1,2-dihydroquinolin-3-yl)oxy)-N-methylacetamide] |
| 39 nM | CNC(=O)COc1cc2cc(Nc3nc(N4C[C@H](CCO)C(F)(F)[C@H](C)C4)c(C#N)cc3Cl)ccc2n(C)c1=O [Compound 63, 2-((6-((3-chloro-5-cyano-6-((3S,5R)-4,4-difluoro-3-(2-hydroxyethyl)-5-methylpiperidin-1-yl)pyridin-2-yl)amino)-1-methyl-2-oxo-1,2-dihydroquinolin-3-yl)oxy)-N-methylacetamide] |
| 71 nM | CNC(=O)COc1cc2cc(Nc3nc(N4C[C@@H](N)C(F)(F)[C@@H](C)C4)c(C#N)cc3Cl)ccc2n(CC2COC2)c1=O (single isomer, unassigned) [Compound 42] |
| 5 nM | CNC(=O)COc1cc2cc(Nc3nc(N4C[C@@H](C)C(F)(F)[C@@H](C)C4)c(C#N)cc3Cl)ccc2n(CC2COC2)c1=O [Compound 7, 2-((6-((3-chloro-5-cyano-6-((3R,5S)-4,4-difluoro-3,5-dimethylpiperidin-1-yl)pyridin-2-yl)amino)-1-(oxetan-3-ylmethyl)-2-oxo-1,2-dihydroquinolin-3-yl)oxy)-N-methylacetamide] |
| > 400 nM | C[C@@H]1CN(c2nc(Nc3ccc4c(c3)cc(OC[C@@H]3CNCCO3)c(=O)n4C)c(Cl)cc2C#N)C[C@H](C)[C@@H]1F [Compound 70, 5-Chloro-2-((3S,4S,5R)-4-fluoro-3,5-dimethylpiperidin-1-yl)-6-((1-methyl-3-((S)-morpholin-2-ylmethoxy)-2-oxo-1,2-dihydroquinolin-6-yl)amino)nicotinonitrile] |
| 38 nM | C[C@H](O)CCn1c(=O)n(C)c2ccc(Nc3nc(N4C[C@@H](C)[C@@H](F)[C@@H](C)C4)c(C#N)cc3F)cc21 [Compound 54, 5-Fluoro-2-((3S,4R,5R)-4-fluoro-3,5-dimethylpiperidin-1-yl)-6-((3-((S)-3-hydroxybutyl)-1-methyl-2-oxo-2,3-dihydro-1H-benzo[d]imidazol-5-yl)amino)nicotinonitrile] |
| 30 nM | C[C@H]1C[C@@H](N)CN(c2nc(Nc3ccc4c(c3)c3c(c(=O)n4C)OCC(F)(F)[C@H](C4CC4)N3)c(Cl)cc2C#N)C1 (single isomer, unassigned) [Compound 24] |
| > 400 nM | C[C@H]1CN(c2nc(Nc3ccc4c(c3)n(C[C@@H]3CNC(=O)O3)c(=O)n4C)c(F)cc2C#N)C[C@@H](N)C1(F)F [Compound 85, 2-[(3R,5S)-3-amino-4,4-difluoro-5-methyl-1-piperidyl]-5-fluoro-6-[[1-methyl-2-oxo-3-[[(5S)-2-oxooxazolidin-5-yl]methyl]benzimidazol-5-yl]amino]pyridine-3-carbonitrile] |
| 2 nM | CNC(=O)COc1cc2cc(Nc3nc(N4C[C@@H](C)[C@@H](F)[C@@H](C)C4)c(C#N)cc3Cl)ccc2n(CCN(C)C)c1=O [Compound 72, 2-((6-((3-Chloro-5-cyano-6-((3S,4S,5R)-4-fluoro-3,5-dimethylpiperidin-1-yl)pyridin-2-yl)amino)-1-(2-(dimethylamino)ethyl)-2-oxo-1,2-dihydroquinolin-3-yl)oxy)-N-methylacetamide] |
| 10 nM | CNC(=O)COc1cc2cc(Nc3nc(N4C[C@@H](C)C(F)(F)[C@@H](N)C4)c(C#N)cc3Cl)ccc2n(CC2COC2)c1=O [Compound 41, 2-((6-((6-((3S,5R)-3-Amino-4,4-difluoro-5-methylpiperidin-1-yl)-3-chloro-5-cyanopyridin-2-yl)amino)-1-(oxetan-3-ylmethyl)-2-oxo-1,2-dihydroquinolin-3-yl)oxy)-N-methylacetamide] |
| 22 nM | C[C@@H]1CN(c2nc(Nc3ccc4c(c3)n(CCC(C)(C)O)c(=O)n4C)c(Cl)cc2C#N)C[C@H](O)C1(F)F [Compound 74, 5-chloro-2-((3S,5R)-4,4-difluoro-3-hydroxy-5-methylpiperidin-1-yl)-6-((3-(3-hydroxy-3-methylbutyl)-1-methyl-2-oxo-2,3-dihydro-1H-benzo[d]imidazol-5-yl)amino)nicotinonitrile] |
| > 400 nM | C[C@H]1CN(c2nc(Nc3ccc4c(c3)n(CCC(C)(C)O)c(=O)n4C)c(Cl)cc2C#N)C[C@@H](O)C1(F)F [Compound 75, 5-chloro-2-((3R,5S)-4,4-difluoro-3-hydroxy-5-methylpiperidin-1-yl)-6-((3-(3-hydroxy-3-methylbutyl)-1-methyl-2-oxo-2,3-dihydro-1H-benzo[d]imidazol-5-yl)amino)nicotinonitrile] |
| 15 nM | CNC(=O)COc1cc2cc(Nc3nc(N4C[C@@H](C)[C@@H](F)[C@@H](C)C4)c(C#N)cc3Cl)ccc2n(CCCN)c1=O [Compound 69, 2-((1-(3-Aminopropyl)-6-((3-chloro-5-cyano-6-((3S,4S,5R)-4-fluoro-3,5-dimethylpiperidin-1-yl)pyridin-2-yl)amino)-2-oxo-1,2-dihydroquinolin-3-yl)oxy)-N-methylacetamide] |
| > 400 nM | C[C@H]1CN(c2nc(Nc3ccc4c(c3)n(CCC(C)(C)O)c(=O)n4C)c(F)cc2C#N)C[C@@H](O)[C@H]1F [Compound 53, 5-Fluoro-2-((3R,4S,5S)-4-fluoro-3-hydroxy-5-methylpiperidin-1-yl)-6-((3-(3-hydroxy-3-methylbutyl)-1-methyl-2-oxo-2,3-dihydro-1H-benzo[d]imidazol-5-yl)amino)nicotinonitrile] |
| 31 nM | C[C@@H]1CN(c2nc(Nc3ccc4c(c3)n(CCC(C)(C)O)c(=O)n4C)c(Cl)cc2C#N)C[C@H](N)C1(F)F [Compound 48, 2-((3S,5R)-3-Amino-4,4-difluoro-5-methylpiperidin-1-yl)-5-chloro-6-((3-(3-hydroxy-3-methylbutyl)-1-methyl-2-oxo-2,3-dihydro-1H-benzo[d]imidazol-5-yl)amino)nicotinonitrile] |
| 6 nM | CNC(=O)COc1cc2cc(Nc3nc(N4C[C@@H](C)C(F)(F)[C@@H](C)C4)c(C#N)cc3Cl)ccc2n(C)c1=O [Compound 2, 2-((6-((3-Chloro-5-cyano-6-((3S,5R)-4,4-difluoro-3,5-dimethylpiperidin-1-yl)pyridin-2-yl)amino)-1-methyl-2-oxo-1,2-dihydroquinolin-3-yl)oxy)-N-methylacetamide] |
| 28 nM | C[C@@H]1CN(c2nc(Nc3ccc4c(c3)n(CCC(C)(C)O)c(=O)n4C)c(Cl)cc2C#N)C[C@H](O)[C@@H]1F [Compound 50, 5-chloro-2-((3S,4R,5R)-4-fluoro-3-hydroxy-5-methylpiperidin-1-yl)-6-((3-(3-hydroxy-3-methylbutyl)-1-methyl-2-oxo-2,3-dihydro-1H-benzo[d]imidazol-5-yl)amino)nicotinonitrile] |
| 4 nM | CNC(=O)COc1cc2cc(Nc3nc(N4CC(C)CC(O)C4)c(C#N)cc3Cl)ccc2n(CCN(C)C)c1=O (stereo not drawn) [Compound 76, 2-((6-((3-Chloro-5-cyano-6-(3-hydroxy-5-methylpiperidin-1-yl)pyridin-2-yl)amino)-1-(2-(dimethylamino)ethyl)-2-oxo-1,2-dihydroquinolin-3-yl)oxy)-N-methylacetamide] |
| 10 nM | CNC(=O)COc1cc2cc(Nc3nc(N4C[C@@H](C)C(F)(F)[C@@H](N)C4)c(C#N)cc3Cl)ccc2n(C)c1=O [Compound 43, 2-((6-((6-((3S,5R)-3-Amino-4,4-difluoro-5-methylpiperidin-1-yl)-3-chloro-5-cyanopyridin-2-yl)amino)-1-methyl-2-oxo-1,2-dihydroquinolin-3-yl)oxy)-N-methylacetamide] |
| > 400 nM | CNC(=O)COc1cc2cc(Nc3nc(N4C[C@@H](C)C(F)(F)[C@@H](C)C4)c(C#N)cc3Cl)ccc2nc1OCC1COC1 [Compound 58, 2-((6-((3-chloro-5-cyano-6-((3R,5S)-4,4-difluoro-3,5-dimethylpiperidin-1-yl)pyridin-2-yl)amino)-2-(oxetan-3-ylmethoxy)quinolin-3-yl)oxy)-N-methylacetamide] |
| > 400 nM | C[C@H]1CN(c2nc(Nc3ccc4c(c3)n(CCC(C)(C)O)c(=O)n4C)c(F)cc2C#N)C[C@@H](O)C1(F)F (single isomer, unassigned) [Compound 83] |
| 33 nM | C[C@@H]1CN(c2nc(Nc3ccc4c(c3)n(CC[C@@H](C)O)c(=O)n4C)c(F)cc2C#N)C[C@H](C)[C@@H]1F [Compound 55, 5-Fluoro-2-((3S,4S,5R)-4-fluoro-3,5-dimethylpiperidin-1-yl)-6-((3-((R)-3-hydroxybutyl)-1-methyl-2-oxo-2,3-dihydro-1H-benzo[d]imidazol-5-yl)amino)nicotinonitrile] |
| > 400 nM | C[C@@H]1CN(c2nc(Nc3ccc4c(c3)cc(OC[C@H]3CNCCO3)c(=O)n4C)c(Cl)cc2C#N)C[C@H](C)[C@@H]1F [Compound 71, 5-Chloro-2-((3S,4S,5R)-4-fluoro-3,5-dimethylpiperidin-1-yl)-6-((1-methyl-3-((R)-morpholin-2-ylmethoxy)-2-oxo-1,2-dihydroquinolin-6-yl)amino)nicotinonitrile] |

From US20250074890A1, “CYANOPYRIDINE AND CYANOPYRIMIDINE BCL6 DEGRADERS” (DANA-FARBER CANCER INSTITUTE, INC., priority 2021, published 2025)
